Source: US7598377B2, “Inhibition of phosphoinositide 3-kinase β” (AstraZeneca AB, priority 2002, dated 2009)
Like-named read-outs stand apart in the source and are kept apart here.

What was measured:
various isoforms of PI3K = system: T1, various isoforms of PI3K; settings: measured IC50 stated to agree with previously reported values; read-out: IC50 against the various isoforms of PI3K; cited from earlier work
T1 construct: The γ isoform was produced as a recombinant protein in the Kinacia laboratories

[1] = system: platelets on immobilized vWf; test: In vitro flow studies: platelet calcium flux and adhesion on immobilized vWf; type: cell-based; settings: vWf matrix, shear rate gradient up to 10,000 s^−1 over 1 s
Method: The use of an in vitro-flow based adhesion assay enables us to simultaneously analyze platelet adhesion dynamics and activation (by monitoring cytosolic calcium flux) on immobilized von Willebrand factor (vWf). Briefly, isolated platelets are perfused through vWf (100 μg/ml) coated microcapillary tubes and analysis of cytosolic calcium flux conducted in real-time by confocal microscopy.
Washed platelets (1.5×10^9) suspended in PWB were incubated with the calcium indicator dyes, Oregon Green 488 BAPTA-1, AM (1 μM) and Fura Red, AM (1.25 μM), for 30 min at 37° C. Platelets were washed twice with PWB prior to being resuspended in Tyrode's buffer containing 1 mM calcium.
For static adhesion assays, platelets were allowed to settle on the surface of vWf-coated coverslips for 30 min at 37° C. For flow assays, platelets were either perfused over a vWf-coated microcapillary tube at a constant shear rate of 600, 1800 or 10,000 s^−1 or allowed to settle on the surface of a vWf-coated microcapillary tube prior to being accelerated through a shear gradient of 10,000 s^−1 over a 1 s interval. Real time platelet calcium flux in individual platelets was monitored at 1 s intervals over the 30 min incubation period or at 0.586 s intervals for up to 175 s for static and flow-based assays, respectively.

P110 δ = target: T2, P110 δ (Homo sapiens, UniProt O00329); test: Isoform selective in vitro PI3K enzyme assay (Example 13), δ from THP-1 cells; type: biochemical; settings: read-out: P110 δ IC50s
T2 construct: The δ isoform was immunoprecipitated from THP-1 cells; endogenous in cells; host or cells: THP-1 cells (immunoprecipitated with antibody sc-7176)
Method: In vitro enzyme assays were conducted as a primary screen to determine drug candidate isoform affinity and specificity. […] The γ isoform was produced as a recombinant protein in the Kinacia laboratories. […] Standard phosphorylation assays using phosphatidylinositol and ^32P were used to measure the enzyme activity in the immunoprecipates in the presence or absence of an inhibitor. Enzyme activity was determined over a range of inhibitor concentrations to establish an IC50 value.

P110 γ = target: T3, P110 γ (Homo sapiens, UniProt P48736); test: Isoform selective in vitro PI3K enzyme assay (Example 13), γ recombinant; type: biochemical; settings: read-out: P110 γ IC50s
T3 construct: made in house
Method: In vitro enzyme assays were conducted as a primary screen to determine drug candidate isoform affinity and specificity. The α and β isoforms of the PI3K were immunoprecipitated from a platelet lysate, using an antibodies obtained from Santa Cruz Biotechnology, that recognized specific regions of p110α (sc-7174) and β (sc-603) isoforms. The γ isoform was produced as a recombinant protein in the Kinacia laboratories. […] Standard phosphorylation assays using phosphatidylinositol and ^32P were used to measure the enzyme activity in the immunoprecipates in the presence or absence of an inhibitor. Enzyme activity was determined over a range of inhibitor concentrations to establish an IC50 value.

[2] = system: PI 3-kinase immunoprecipitated from human platelets (p85/110 form); test: In vitro PI 3-kinase assay (Example 8), Platelet IP (p85); type: biochemical; settings: read-out: Platelet IP (p85) IC50s
Method: The effect of pyridine-substituted compounds on PI 3-kinase activity was determined using an in vitro PI 3-kinase assay. This assay was performed using PI 3-kinase immunoprecipitated from human platelets as the enzyme and PI as the substrate. The PI 3-kinase activity was quantitated by measuring the enzymatic incorporation of [^32P] into PI, forming PI([^32P]-3)P, as previously described (Susa et al., 1992, The Journal of Biological Chemistry 267(32):22951-22956.
Washed human platelets were lysed in Triton X-100 lysis buffer (10 mM Tris, pH 7.4, 1% Triton X-100, 2 mM EDTA, 1 mM PMSF) for 30 minutes. The Triton X-100 insoluble fraction was removed by centrifugation of the cell lysates at 15,000 g for 10 minutes. PI 3-kinase was immunoprecipitated by mixing 500 μg of the cell lysate with 1 μg of a rabbit anti-rat antibody against the p85/110 form of PI 3-kinase and 30 μl of 50% Protein A-sepharose beads for 2 hours at 4° C. The Protein A-sepharose-bound PI 3-kinase was isolated by pelleting the beads at 15,000 g for 5 seconds, and washing three times with ice-cold Triton X-100 lysis buffer followed by four washes with PI 3-kinase assay buffer (20 mM HEPES, pH 7.4, 1 mM EGTA, 5 mM MgCl2).
PI stored in CHCl3 was dried under N2, resuspended in the lipid buffer (50 mM HEPES, pH 7.2, 1 mM EDTA) at a final concentration of 330 μg/ml, and sonicated for 6 minutes on ice. PI([^32P]-3)P was generated by mixing the immunoprecipitated PI 3-kinase for 20 minutes with 40 μl of the PI, 10 μl of ATP (1 mM) and ^32P-r-ATP (0.5 μCi, 1 μCi/nmol), 10 μl of 10× kinase buffer, in a final assay volume of 100 μl adjusted with H2O. TGX-was preincubated with the PI 3-kinase for 5 minutes prior to the addition of ATP. The assay was terminated with 100 μl of 1 N HCl, and the PI([^32P]-3)P product extracted with 200 μl chloroform:methanol (1:1) and 500 μl 2 M KCl. The PI([^32P]-3)P in the chloroform phase was resolved by thin layer chromatography using a solvent system containing CHCl3:MeOH:HAC:H2O (43:38:5:7) (v:v:v:v), and visualized by autoradiography. The PI([^32P]-3)P spots were then scraped off from the TLC plates, deacylated with 1 ml methylamine:butanol:methanol (42:9:47) (v:v:v) for 4 hours at 53° C., and quantitated using a liquid scintillation counter (LKB 1209 RackBETA).

[3] = system: carotid artery cyclic flow reductions in rat; test: Animal model of internal carotid artery occlusion (Folts); type: in vivo; settings: 14.0 mg/kg via the jugular vein
Description: This model is used to investigate the effects of antithrombotic drugs on clotting time in vivo in response to a crash injury followed by arterial stenosis.
The carotid artery of an anesthetized rat is dissected out, and an electromagnetic flow probe is placed around the artery to measure blood flow. Proximal to the flow probe, the artery is clamped with surgical forceps covered with silicone tubing to cause intimal and medial damage to the vessel wall. A ligature, or plastic cylinder of appropriate inside diameter is laced around the artery to produce a 70% reduction in arterial diameter.
Platelets aggregate in the area of the stenosed and damaged arterial vessel, gradually forming an occlusive platelet thrombus, seen as a decrease in blood flow. As the thrombus forms, blood pressure increases, causing the thrombus to fragment and embolize distal to the stenosed site. […] This causes a sudden restoration of blood flow. Platelets again aggregate in the area of the stenosed and damaged arterial vessel, repeating the thrombus-embolization pattern. This acute, platelet-mediated thrombus formation, followed by embolization, causes Cyclic Flow Reductions (CFR) in blood flow. Once a rat produces regular CFRs, an anti-thrombotic compound or vehicle control is administered via the jugular vein.

neutrophils = test: Neutrophil ROS response (fmlp, DHR, FACS); type: cell-based, human; settings: fmlp stimulation, read-out: ROS release from neutrophils Example 14 IC50/
Method: 3 ml of preservative free whole blood was placed in a 50 ml conical tube. 48 ml of erythrocyte lysing solution and gently mixed by inversion for 10 min at 25° C. on a haematology nutator and subsequently centrifuged for 10 min at 350×g at 25° C. in a table top centrifuge. The Leukocyte rich pellet was resuspended in phosphate buffered saline supplemented with […] (PBS-gel) and centrifuged as above. The Leukocyte pellet was washed once with Hanks' balanced salt solution (HBSS) and resuspended at a final cell count of 2×10^6/ml and used immediately.
Reactive Oxygen Species (ROS) generation is one of the hall-marks of neutrophil activation. A number of chemokines and cytokines potentiate ROS generation by neutrophils. […] ROS generation was measured by monitoring the oxidation of intracellular dihydrorhodamine 123 (DHR) via fluorescence activated cell sorting (FACS) by modification of the method of Robinson et al., (pp 9.7.5-9.7.9 in Curr. Protocols in Cytometry (1997)). A Leukocyte suspension was bulk loaded with 2 μl of 50 mM DHR per ml cells ([…]) and incubated at 37° C. for 12 min. […] Fluorescence base-line data was calibrated using these gated control neutrophils. Stimulated cell samples were analysed and linear green fluorescence (DHR) was monitored for 5000 gated neutrophils from each sample. […]

platelet rich plasma = test: CD9-antibody induced platelet aggregation of platelet rich plasma; type: cell-based; settings: read-out: Platelet aggregation v. CD9 antibody Example 10 IC50/
Method: The inhibitory effect of TGX286 and KN327 on platelet aggregation induced by the antibody CD9 was examined in platelet rich plasma (PRP). A suspension of PRP was incubated with 20-100 nM TGX286 or control buffer (0.1% DMSO) and treated with an aliquot of the antibody. Aggregation under stirring was monitored in a four channel aggregometer for 10 minutes. The level of aggregation was measured as the change in light transmission through the sample cell.

[4] = system: platelet thrombus formation in citrated whole blood; test: Platelet thrombus formation under flow (Example 12, 600 s^−1); type: cell-based; settings: read-out: Inhibition of Thrombus formation Example 12 IC50/
Method: Blood was perfused through von Willebrand factor—(vWf) coated microcapillary tubes for 2 minutes at 600 s^−1. Non-adherent cells were removed by perfusion of buffer for 2 minutes at 600 s^−1 and any adherent erythrocytes lysed through treatment with 1% ammonium oxalate. Adherent platelets were then lysed through addition of 1% Triton X-100 and lactate dehydrogenase (LDH) levels (U/L) analysed by spectrophotometry.

P110 β isoform = target: T4, P110 β isoform (Homo sapiens, UniProt P42338); test: Isoform selective in vitro PI3K enzyme assay (Example 13), β; type: biochemical
T4 construct: The α and β isoforms of the PI3K were immunoprecipitated from a platelet lysate; from tissue; host or cells: washed platelets (lysate, immunoprecipitated with anti-p110β antibody)
Method: In vitro enzyme assays were conducted as a primary screen to determine drug candidate isoform affinity and specificity. The α and β isoforms of the PI3K were immunoprecipitated from a platelet lysate, using an antibodies obtained from Santa Cruz Biotechnology, that recognized specific regions of p110α (sc-7174) and β (sc-603) isoforms. The γ isoform was produced as a recombinant protein in the Kinacia laboratories. The δ isoform was immunoprecipitated from THP-1 cells in a similar manner using a δ isoform specific antibody (sc-7176). Standard phosphorylation assays using phosphatidylinositol and ^32P were used to measure the enzyme activity in the immunoprecipates in the presence or absence of an inhibitor. Enzyme activity was determined over a range of inhibitor concentrations to establish an IC50 value.

washed platelets = test: Flow-based reconstitution assay (platelet adhesion to vWf); type: cell-based; settings: 1800 s^−1
Method: The platelets and reconstituted red blood cells were perfused through vWf-coated glass microslides for 1 minute at a shear rate of 1800 s^−1. Non-adherent cells were removed by washing for 10 minutes at 1800 s^−1 and the number of adherent platelet were quantitated and expressed as the mean±SEM.

U937 cells = test: Cell proliferation assay; type: cell-based; settings: Homo sapiens, U-937; read-out: Anti-proliferative activity v. U937 cells Example 16 IC50/
Description: The cytotoxic activity of the compounds was monitored over four days by counting cell number, and determining cell viability using a colorimetric assay of metabolic activity.

T3 sequence (P48736 whole entry, species assumed, canonical isoform): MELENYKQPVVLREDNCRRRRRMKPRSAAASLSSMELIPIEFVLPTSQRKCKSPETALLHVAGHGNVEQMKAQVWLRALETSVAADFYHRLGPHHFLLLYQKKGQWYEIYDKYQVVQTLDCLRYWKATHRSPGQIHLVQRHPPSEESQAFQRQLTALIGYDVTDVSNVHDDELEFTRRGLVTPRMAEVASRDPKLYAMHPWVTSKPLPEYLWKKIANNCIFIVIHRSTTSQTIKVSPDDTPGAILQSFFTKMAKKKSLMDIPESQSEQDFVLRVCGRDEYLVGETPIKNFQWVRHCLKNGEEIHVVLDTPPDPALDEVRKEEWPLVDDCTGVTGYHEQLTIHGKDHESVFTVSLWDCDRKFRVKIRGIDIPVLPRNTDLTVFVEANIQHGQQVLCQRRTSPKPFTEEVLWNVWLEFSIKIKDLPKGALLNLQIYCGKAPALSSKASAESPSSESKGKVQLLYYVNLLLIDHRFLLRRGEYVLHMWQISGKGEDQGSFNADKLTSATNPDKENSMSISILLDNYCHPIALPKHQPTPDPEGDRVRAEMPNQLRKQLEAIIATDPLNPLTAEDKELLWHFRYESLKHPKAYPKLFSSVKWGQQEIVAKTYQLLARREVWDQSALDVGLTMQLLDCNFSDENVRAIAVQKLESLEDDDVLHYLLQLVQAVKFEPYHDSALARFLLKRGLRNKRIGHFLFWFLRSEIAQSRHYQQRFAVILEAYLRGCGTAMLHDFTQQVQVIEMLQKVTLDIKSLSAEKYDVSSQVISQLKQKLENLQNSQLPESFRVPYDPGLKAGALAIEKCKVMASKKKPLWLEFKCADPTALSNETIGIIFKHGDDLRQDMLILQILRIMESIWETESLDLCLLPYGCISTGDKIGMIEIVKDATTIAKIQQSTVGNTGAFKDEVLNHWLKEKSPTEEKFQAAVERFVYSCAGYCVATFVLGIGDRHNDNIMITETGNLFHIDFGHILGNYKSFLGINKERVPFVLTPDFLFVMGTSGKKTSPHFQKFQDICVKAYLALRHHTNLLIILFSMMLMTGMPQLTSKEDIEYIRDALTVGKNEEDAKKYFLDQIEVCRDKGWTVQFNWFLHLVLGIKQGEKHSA
T4 sequence (P42338 whole entry, canonical isoform): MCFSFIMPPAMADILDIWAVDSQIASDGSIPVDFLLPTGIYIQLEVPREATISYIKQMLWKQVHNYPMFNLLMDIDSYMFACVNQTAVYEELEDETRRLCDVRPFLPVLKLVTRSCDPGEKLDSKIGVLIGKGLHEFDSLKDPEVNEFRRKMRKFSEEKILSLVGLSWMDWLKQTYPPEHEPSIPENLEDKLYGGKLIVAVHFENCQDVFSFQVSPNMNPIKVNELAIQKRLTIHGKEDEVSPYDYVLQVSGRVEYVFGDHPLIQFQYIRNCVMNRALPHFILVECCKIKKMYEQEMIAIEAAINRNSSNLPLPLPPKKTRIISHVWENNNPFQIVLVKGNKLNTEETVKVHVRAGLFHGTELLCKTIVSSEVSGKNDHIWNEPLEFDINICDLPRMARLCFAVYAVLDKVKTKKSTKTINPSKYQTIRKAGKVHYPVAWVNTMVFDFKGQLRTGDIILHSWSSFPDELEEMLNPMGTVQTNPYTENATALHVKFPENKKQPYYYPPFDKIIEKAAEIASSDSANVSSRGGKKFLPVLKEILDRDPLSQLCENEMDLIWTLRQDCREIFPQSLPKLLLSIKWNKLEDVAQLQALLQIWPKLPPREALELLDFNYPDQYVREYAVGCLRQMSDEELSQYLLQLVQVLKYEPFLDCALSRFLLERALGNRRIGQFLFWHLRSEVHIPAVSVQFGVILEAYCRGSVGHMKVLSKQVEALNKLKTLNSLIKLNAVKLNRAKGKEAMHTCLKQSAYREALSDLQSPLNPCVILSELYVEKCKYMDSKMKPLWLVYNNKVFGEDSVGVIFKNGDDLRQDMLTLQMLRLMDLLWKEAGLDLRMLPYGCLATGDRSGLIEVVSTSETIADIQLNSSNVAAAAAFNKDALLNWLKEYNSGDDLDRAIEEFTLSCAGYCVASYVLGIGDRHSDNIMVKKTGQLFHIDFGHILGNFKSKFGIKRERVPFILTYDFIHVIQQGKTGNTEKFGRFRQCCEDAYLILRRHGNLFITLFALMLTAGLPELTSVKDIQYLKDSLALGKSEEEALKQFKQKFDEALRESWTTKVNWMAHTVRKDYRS
T4 sequence (P27986 whole entry partner, canonical isoform): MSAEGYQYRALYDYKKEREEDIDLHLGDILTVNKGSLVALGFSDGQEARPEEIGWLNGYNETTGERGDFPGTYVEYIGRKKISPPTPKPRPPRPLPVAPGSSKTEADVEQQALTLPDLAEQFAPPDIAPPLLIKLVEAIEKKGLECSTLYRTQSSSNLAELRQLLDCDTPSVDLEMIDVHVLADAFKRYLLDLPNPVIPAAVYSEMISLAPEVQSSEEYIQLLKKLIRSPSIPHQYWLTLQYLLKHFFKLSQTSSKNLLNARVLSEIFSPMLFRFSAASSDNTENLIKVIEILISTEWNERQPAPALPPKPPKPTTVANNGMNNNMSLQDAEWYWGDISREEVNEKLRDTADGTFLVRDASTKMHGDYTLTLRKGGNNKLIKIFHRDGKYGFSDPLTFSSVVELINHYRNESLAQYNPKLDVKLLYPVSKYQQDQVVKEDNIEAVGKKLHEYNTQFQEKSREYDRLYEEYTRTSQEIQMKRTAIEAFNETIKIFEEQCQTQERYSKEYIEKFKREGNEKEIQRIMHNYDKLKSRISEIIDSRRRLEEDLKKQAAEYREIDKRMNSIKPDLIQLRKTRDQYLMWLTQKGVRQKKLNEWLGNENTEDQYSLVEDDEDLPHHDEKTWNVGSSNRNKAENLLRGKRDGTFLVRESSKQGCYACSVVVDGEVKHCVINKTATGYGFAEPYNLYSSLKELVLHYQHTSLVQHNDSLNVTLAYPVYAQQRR
T2 sequence (O00329 whole entry, canonical isoform): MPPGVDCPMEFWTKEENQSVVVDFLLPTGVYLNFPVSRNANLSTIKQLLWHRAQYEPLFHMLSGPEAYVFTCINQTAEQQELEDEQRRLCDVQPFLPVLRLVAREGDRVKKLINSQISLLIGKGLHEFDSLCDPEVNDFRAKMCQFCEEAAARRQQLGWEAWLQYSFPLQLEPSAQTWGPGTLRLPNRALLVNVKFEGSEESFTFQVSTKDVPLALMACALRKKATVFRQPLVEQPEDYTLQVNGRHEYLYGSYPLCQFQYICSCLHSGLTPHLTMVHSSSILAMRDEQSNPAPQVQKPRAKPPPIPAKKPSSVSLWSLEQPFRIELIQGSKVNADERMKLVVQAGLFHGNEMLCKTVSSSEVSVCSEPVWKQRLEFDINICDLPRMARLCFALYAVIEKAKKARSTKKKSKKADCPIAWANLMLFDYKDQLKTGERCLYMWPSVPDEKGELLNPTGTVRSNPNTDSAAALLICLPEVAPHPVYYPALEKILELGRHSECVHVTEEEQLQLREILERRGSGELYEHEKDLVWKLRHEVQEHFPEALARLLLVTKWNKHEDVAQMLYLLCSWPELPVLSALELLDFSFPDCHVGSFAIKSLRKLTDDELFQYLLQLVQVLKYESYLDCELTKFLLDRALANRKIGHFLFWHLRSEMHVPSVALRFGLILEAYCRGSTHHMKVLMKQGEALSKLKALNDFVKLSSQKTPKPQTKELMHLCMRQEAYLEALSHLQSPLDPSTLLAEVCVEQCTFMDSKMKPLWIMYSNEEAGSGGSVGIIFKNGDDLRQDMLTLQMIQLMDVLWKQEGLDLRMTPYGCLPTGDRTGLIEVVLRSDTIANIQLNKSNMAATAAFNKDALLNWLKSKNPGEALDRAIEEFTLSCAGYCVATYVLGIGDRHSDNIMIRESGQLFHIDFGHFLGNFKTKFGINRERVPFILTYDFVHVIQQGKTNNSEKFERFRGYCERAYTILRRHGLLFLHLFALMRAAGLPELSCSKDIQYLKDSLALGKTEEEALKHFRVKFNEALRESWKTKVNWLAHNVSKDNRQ
T2 sequence (P27986 whole entry partner, canonical isoform): as the sequence (P27986 whole entry partner, canonical isoform) above

Compound | IC50 (various isoforms of PI3K) [nM] | platelet responses to accelerated shear [1] | IC50 (P110 δ) [nM] | IC50 (P110 γ) [nM] | IC50 [2] [nM] | treated animals returned to baseline within 10 minutes [3] [%] | IC50 (neutrophils) [nM] | IC50 (platelet rich plasma) [nM] | IC50 [4] [nM] | IC50 (P110 β isoform) [nM] | IC50 (neutrophils; Homo sapiens, Neutrophil) [nM] | decrease in platelet adhesion (washed platelets; 10 nM) [%] | decrease in platelet adhesion (washed platelets; 25 nM) [%] | decrease in platelet adhesion (washed platelets; 50 nM) [%] | IC50 (U937 cells) [nM] | IC50 ([4]; Platelet) [nM]
O=c1cc(N2CCOCC2)oc2c(-c3ccccc3)cccc12 [LY294002, 8-phenyl-2-(4-morpholinyl)-4H-benzopyran-4-one, reference compound] | 500 to 1500 | eliminates platelet responses to accelerated shear |  |  |  |  |  |  |  |  |  |  |  |  |  | 
8-(1-(2-aminophenylamino)ethyl-2-(4-pyridinyl)-4H-benzopyran-1-one [KN327] |  |  | 500 | 15000 | 20 | 80 | 78 | 200 | 250 |  |  |  |  |  |  | 
Cc1cc(C(C)Nc2ccccc2)c2oc(-c3ccncc3)cc(=O)c2c1 (stereo not shown) [TGX-286, 8-1-(phenylamino)ethyl-6-methyl-2-(4-pyridinyl)-4H-1-benzopyran-4-one] |  |  |  |  | 2 | 80 |  | 100 |  | 2 | 5 | 51 | 67 | 86 | 5000 | 500
